The text below walks through data of publication PMC5431781, “Structural studies of the periplasmic portion of the diguanylate cyclase CdgH from Vibrio cholerae” (Scientific Reports, 2017).

Read-outs that look alike come from different tables or passages of the source.

In one test the target is LAOBP. Details: method as in PMID 1400387. The settings on record: cited from earlier work.
Test [1] addresses PBPb-I domain of CdgH (residues 46–250) (Vibrio cholerae, UniProt Q9KT38). The test is classed as binding.

Sequence of PBPb-I domain of CdgH (residues 46–250) (Q9KT38 46-250 limits assumed): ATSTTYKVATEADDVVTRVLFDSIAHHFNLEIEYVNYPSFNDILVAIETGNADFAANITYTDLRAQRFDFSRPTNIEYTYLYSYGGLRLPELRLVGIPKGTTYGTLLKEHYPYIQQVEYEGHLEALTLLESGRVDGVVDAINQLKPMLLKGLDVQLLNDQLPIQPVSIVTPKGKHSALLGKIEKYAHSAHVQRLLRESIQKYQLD

Regarding `N=C(N)NCCC[C@H](N)C(=O)O` [L-Arg, L-arginine], the Kd at LAOBP was 14 nM. This compound also returned a ΔH in test [1] (pH 8) of -12.87 ± 0.04 kcal/mol.

For the compound `NC(=O)CC[C@H](N)C(=O)O` [L-Gln, L-glutamine], in test [1] (pH 8), the ΔH is -3.57 ± 1.02 kcal/mol.

`N[C@@H](Cc1c[nH]cn1)C(=O)O` [L-His, L-histidine] yielded a ΔH in test [1] (pH 8) of -7.90 ± 0.28 kcal/mol.

Consider `NCCCC[C@H](N)C(=O)O` [L-Lys, L-lysine], for which, in test [1], the “binding affinity weaker than that with L-arginine” value is on record as “about 18 fold”. This compound yielded a ΔH in test [1] (pH 8) of -6.02 ± 0.05 kcal/mol.

`NCCC[C@H](N)C(=O)O` [L-Orn, L-ornithine]: in test [1] (pH 8), the Ka stood at 240000 ± 33700 M⁻¹ and the ΔH is -3.61 ± 0.08 kcal/mol. The Kd in test [1] (pH 8, read-out: Kd) was determined as 4170 nM.

As for `N[C@@H](CC(=O)O)C(=O)O` [L-aspartate], the Kd entry in test [1] (pH 8) was “no measurable binding affinity”.
